{
  "source": "ChEMBL document CHEMBL5465560",
  "about": "“Selectivity Literature for EUbOPEN Chemogenomic Library” (2024)",
  "key": {"[1]": {"biological_target": "Sigma non-opioid intracellular receptor 1 (Homo sapiens) (UniProt Q99720)", "sequence (Q99720 whole entry)": "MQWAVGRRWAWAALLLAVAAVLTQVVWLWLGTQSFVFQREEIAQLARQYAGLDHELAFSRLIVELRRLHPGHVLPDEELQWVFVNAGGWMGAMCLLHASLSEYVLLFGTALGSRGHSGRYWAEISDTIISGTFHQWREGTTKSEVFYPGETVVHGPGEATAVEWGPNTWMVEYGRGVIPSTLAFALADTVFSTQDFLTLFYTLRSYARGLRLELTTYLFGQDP", "test": "Selectivity interaction (Eurofins CEREP Diversity Profile (receptors and ion channels)) EUB0000279b SIGMAR1", "conditions": "at 10 µM"}, "[2]": {"biological_target": "Bromodomain-containing protein 7 (Homo sapiens) (UniProt Q9NPI1)", "test": "Selectivity interaction (Human bromodomain panel (DSF assay)) EUB0000233b BRD7"}, "[3]": {"biological_target": "Phosphatidylinositol 4-kinase alpha (Homo sapiens, UniProt P42356)", "sequence (P42356 whole entry)": "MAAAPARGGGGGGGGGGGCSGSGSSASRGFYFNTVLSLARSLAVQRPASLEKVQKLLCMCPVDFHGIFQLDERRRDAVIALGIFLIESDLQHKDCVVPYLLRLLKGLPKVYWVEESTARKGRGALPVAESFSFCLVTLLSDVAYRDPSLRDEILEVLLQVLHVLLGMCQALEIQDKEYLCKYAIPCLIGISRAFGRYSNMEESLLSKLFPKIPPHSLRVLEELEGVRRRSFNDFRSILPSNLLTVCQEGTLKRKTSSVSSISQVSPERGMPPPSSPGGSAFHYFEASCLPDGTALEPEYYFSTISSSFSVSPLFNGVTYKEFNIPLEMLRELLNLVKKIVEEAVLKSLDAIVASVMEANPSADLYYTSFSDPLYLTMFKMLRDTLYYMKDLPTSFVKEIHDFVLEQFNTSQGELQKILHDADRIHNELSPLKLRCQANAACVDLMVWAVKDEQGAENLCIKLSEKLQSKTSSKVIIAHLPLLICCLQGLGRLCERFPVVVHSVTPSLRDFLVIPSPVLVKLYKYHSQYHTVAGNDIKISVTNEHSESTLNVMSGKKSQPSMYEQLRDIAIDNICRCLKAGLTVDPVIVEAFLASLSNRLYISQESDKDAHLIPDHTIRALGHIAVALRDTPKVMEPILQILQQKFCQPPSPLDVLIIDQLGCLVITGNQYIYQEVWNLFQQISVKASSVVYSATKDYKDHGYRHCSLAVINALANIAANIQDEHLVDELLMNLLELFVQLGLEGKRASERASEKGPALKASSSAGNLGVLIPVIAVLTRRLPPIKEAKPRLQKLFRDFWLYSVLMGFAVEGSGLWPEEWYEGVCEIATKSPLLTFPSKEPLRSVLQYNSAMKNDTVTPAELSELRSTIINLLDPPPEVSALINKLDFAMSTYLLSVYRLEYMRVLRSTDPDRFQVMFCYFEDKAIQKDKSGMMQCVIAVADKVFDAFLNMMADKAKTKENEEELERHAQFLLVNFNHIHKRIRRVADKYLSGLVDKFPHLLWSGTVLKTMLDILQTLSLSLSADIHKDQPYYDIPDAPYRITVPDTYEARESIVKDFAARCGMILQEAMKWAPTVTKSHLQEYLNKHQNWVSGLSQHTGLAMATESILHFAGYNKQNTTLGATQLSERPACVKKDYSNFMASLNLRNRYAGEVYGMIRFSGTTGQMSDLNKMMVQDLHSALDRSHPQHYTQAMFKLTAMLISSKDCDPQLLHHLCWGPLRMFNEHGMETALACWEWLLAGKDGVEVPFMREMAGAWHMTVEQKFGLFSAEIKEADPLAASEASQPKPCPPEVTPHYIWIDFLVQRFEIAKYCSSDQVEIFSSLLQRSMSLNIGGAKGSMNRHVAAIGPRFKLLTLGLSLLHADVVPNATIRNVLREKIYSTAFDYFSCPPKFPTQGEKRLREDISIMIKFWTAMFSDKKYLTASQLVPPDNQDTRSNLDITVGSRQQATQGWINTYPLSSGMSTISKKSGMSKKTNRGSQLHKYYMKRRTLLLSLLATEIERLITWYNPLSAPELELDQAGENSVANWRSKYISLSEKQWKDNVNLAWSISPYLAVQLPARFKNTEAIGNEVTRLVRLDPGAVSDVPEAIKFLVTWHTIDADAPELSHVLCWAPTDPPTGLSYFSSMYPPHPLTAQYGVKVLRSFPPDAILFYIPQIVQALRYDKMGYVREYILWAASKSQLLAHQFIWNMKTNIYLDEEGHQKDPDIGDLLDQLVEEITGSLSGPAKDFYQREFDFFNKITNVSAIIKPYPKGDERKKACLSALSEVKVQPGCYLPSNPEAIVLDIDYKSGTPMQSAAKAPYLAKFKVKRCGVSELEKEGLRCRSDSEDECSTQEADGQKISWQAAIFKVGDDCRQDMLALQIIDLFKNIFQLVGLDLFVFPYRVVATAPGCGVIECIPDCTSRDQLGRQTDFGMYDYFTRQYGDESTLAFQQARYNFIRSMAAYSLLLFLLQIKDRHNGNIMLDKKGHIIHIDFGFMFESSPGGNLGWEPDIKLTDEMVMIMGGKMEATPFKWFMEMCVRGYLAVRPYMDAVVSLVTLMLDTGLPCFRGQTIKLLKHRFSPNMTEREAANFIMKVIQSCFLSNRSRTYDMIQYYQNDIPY", "test": "Selectivity interaction (Kinase panel (radiometric assay)) EUB0000877a PI4KA"}, "[4]": {"biological_target": "Serine/threonine-protein kinase B-raf (Homo sapiens) (UniProt P15056)", "sequence (P15056 whole entry)": "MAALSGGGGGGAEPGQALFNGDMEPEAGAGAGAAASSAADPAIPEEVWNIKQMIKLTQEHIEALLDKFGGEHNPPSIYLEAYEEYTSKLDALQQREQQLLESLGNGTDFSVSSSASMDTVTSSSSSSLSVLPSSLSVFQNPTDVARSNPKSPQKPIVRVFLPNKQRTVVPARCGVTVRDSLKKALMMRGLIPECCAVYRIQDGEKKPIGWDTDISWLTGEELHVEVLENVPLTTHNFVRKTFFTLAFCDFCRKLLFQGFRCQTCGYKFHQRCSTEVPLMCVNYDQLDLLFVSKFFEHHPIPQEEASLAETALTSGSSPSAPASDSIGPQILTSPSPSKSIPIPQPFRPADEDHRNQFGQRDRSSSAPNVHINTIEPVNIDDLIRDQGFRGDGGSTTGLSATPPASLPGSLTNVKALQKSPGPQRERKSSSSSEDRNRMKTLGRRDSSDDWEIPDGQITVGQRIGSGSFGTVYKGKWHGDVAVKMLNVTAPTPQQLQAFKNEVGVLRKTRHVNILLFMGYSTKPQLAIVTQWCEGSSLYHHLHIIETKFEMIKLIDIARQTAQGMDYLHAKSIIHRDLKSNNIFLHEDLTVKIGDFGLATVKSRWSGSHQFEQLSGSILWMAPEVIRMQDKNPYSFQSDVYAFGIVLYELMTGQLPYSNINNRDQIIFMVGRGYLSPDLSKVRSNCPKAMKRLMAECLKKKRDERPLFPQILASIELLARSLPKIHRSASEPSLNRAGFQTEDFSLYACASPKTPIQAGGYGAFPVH", "test": "Selectivity interaction (Kinase panel (Eurofins)) EUB0001564a BRAF", "conditions": "at 1 µM"}, "[5]": {"biological_target": "Tyrosine-protein kinase CSK (Homo sapiens) (UniProt P41240)", "sequence (P41240 2-450 limits assumed)": "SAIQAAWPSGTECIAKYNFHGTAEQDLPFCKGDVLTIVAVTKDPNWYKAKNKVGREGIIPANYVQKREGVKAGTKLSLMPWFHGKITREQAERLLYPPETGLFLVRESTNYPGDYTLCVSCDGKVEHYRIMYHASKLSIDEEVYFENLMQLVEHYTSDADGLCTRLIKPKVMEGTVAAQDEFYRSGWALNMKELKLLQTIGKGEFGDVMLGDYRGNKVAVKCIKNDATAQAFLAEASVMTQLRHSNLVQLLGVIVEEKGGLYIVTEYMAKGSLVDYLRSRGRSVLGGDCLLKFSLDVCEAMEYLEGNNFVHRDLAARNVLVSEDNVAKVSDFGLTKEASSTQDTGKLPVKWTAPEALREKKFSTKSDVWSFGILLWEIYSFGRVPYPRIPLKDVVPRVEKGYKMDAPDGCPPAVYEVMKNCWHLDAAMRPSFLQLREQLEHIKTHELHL", "test": "Selectivity interaction (KinomeScan (DiscoverX)) EUB0000607a CSK", "conditions": "at 10 µM"}, "[6]": {"system": "T1, Receptor-type tyrosine-protein kinase FLT3 (Homo sapiens), P36888 [N841I]", "T1 sequence (whole entry)": "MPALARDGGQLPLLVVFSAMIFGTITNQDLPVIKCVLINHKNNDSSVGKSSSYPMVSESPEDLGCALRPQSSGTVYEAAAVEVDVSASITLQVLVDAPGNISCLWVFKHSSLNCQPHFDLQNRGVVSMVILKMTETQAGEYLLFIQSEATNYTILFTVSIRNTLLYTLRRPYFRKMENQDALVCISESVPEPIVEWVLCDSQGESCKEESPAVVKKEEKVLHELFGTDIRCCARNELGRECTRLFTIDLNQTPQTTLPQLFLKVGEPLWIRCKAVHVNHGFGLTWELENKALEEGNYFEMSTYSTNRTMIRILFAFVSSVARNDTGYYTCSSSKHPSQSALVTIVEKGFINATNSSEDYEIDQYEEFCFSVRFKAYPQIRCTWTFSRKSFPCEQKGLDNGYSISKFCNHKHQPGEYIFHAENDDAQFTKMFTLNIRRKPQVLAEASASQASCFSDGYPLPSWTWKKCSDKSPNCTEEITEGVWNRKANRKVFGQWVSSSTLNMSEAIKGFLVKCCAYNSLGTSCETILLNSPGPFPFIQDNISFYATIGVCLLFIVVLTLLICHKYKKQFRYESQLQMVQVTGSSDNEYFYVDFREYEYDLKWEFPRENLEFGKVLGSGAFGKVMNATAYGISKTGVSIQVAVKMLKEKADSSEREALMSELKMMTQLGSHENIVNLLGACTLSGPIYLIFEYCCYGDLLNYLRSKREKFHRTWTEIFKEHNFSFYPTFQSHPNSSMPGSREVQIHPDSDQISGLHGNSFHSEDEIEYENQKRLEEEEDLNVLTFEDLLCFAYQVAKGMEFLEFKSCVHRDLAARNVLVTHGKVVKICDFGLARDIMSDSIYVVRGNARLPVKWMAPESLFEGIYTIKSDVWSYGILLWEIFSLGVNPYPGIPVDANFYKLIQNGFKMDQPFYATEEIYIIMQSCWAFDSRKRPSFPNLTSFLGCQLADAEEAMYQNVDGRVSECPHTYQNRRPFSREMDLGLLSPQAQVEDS", "conditions": "at 10 µM"}, "[7]": {"biological_target": "CDK9/cyclin T1 (Homo sapiens) (UniProt O60563+P50750)", "test": "Selectivity interaction (Kinase panel (Invitrogen)) EUB0000639a CDK9", "format": "protein-complex assay", "conditions": "at 200 nM"}, "[8]": {"biological_target": "Tyrosine-protein kinase Fer (Homo sapiens) (UniProt P16591)", "sequence (P16591 whole entry, looked up)": "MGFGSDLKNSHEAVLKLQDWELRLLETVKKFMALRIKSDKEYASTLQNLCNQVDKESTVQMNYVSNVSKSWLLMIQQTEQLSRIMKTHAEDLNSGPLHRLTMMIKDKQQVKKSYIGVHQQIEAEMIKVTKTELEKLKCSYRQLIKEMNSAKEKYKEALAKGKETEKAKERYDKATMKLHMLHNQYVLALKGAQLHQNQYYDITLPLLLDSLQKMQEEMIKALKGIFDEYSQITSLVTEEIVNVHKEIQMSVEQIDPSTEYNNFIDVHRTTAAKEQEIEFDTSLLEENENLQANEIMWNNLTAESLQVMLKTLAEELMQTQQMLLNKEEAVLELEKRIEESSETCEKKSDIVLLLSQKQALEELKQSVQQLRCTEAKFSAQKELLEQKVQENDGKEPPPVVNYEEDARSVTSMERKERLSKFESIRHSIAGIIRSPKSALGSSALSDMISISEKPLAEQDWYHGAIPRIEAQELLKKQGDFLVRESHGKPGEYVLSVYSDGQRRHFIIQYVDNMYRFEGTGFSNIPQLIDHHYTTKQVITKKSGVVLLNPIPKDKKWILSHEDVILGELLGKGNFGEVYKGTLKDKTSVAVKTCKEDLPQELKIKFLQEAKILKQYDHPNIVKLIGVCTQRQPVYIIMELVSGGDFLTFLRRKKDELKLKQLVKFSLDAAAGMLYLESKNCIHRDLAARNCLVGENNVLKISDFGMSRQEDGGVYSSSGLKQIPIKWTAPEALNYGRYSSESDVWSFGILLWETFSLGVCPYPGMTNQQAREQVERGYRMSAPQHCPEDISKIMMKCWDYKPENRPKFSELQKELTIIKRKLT", "test": "Selectivity interaction (Ambit KINOMEscan and KiNATiv profiling in Jurkat cells) EUB0000090b FER", "format": "cell-based", "conditions": "at 1 µM"}, "[9]": {"biological_target": "Serine/threonine-protein kinase NIM1 (Homo sapiens, UniProt Q8IY84)"}, "[10]": {"biological_target": "T2, Serine/threonine-protein kinase LATS1 (Homo sapiens) (UniProt O95835)", "T2 sequence (whole entry)": "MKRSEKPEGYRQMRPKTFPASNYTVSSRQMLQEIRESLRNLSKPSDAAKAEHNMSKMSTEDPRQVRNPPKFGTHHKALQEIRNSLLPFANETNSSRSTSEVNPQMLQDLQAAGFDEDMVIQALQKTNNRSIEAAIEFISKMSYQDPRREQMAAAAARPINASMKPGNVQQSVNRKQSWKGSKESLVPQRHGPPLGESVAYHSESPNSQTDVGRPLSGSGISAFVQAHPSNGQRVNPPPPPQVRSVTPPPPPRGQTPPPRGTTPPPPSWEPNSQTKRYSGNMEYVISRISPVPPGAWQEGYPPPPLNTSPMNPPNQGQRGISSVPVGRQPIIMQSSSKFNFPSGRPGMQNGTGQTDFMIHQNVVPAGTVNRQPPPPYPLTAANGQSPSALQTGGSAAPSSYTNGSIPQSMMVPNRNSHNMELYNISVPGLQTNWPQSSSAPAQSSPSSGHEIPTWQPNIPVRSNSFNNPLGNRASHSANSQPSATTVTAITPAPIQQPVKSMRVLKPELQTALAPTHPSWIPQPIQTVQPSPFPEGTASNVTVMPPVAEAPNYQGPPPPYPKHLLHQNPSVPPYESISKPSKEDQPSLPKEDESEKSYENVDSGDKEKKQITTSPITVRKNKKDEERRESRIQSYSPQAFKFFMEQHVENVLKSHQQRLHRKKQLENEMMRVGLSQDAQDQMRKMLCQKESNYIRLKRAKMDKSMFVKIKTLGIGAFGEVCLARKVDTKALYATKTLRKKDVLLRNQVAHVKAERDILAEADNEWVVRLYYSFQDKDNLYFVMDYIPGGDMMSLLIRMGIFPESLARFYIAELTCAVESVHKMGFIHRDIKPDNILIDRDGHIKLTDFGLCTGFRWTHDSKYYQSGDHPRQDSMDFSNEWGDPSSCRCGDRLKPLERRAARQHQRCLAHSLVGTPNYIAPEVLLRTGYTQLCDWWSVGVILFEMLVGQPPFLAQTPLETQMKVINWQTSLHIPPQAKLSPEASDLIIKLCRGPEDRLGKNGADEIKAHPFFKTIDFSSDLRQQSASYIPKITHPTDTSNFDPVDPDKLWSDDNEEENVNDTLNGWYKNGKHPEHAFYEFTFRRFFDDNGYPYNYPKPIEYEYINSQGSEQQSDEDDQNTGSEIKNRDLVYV", "test": "Selectivity interaction (KinomeScan (DiscoverX)) EUB0000229b LATS1", "conditions": "at 10 µM"}, "[11]": {"biological_target": "Rho-associated protein kinase 1 (Homo sapiens) (UniProt Q13464)", "conditions": "at 10 µM"}, "[12]": {"biological_target": "Mitogen-activated protein kinase 9 (Homo sapiens, UniProt P45984)", "sequence (P45984 whole entry, looked up)": "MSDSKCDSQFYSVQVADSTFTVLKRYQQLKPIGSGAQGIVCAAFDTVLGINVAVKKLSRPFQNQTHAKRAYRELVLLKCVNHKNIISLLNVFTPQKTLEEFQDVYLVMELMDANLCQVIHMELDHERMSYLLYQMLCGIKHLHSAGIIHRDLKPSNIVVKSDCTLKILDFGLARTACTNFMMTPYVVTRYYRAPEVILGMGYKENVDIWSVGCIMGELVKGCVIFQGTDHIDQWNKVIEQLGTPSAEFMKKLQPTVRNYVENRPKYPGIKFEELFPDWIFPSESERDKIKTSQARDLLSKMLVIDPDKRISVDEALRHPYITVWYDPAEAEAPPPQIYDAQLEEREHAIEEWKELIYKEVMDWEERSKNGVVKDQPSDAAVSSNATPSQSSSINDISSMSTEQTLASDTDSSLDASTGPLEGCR", "test": "Selectivity interaction (KinomeScan (DiscoverX)) EUB0000618a MAPK9", "conditions": "at 10 µM"}, "[13]": {"biological_target": "Tyrosine-protein kinase ABL1 (Homo sapiens, UniProt P00519)", "test": "Selectivity interaction (ActivX KiNativ screen (ex vivo kinase selectivity in human PBMCs)) EUB0001619a ABL1", "format": "cell-based", "conditions": "PBMC, at 1 µM"}},
  "data": [
    {"smiles": "CC(=O)c1cc(-c2ccccc2OCC2CC2)c2ncccn12", "values": [
      {"measurement": "% of control", "setting": "[1]", "result": 98, "unit": "%"}
    ]},
    {"smiles": "CN(C)CCCOc1ccc(-c2cc(NCCCn3cccn3)nc(S(C)(=O)=O)n2)cc1", "values": [
      {"measurement": "dTM", "setting": "[2]", "result": 4, "unit": "K"}
    ]},
    {"smiles": "CCC(=O)N1CC[C@H](Nc2ncnc3c2CN(c2cnc(OC)c(C(F)(F)F)c2)CC3)C1", "note": "[LENIOLISIB]", "values": [
      {"measurement": "IC50", "setting": "[3]", "result": "> 9.1", "unit": "µM"}
    ]},
    {"smiles": "CC[C@@H](Nc1c(C#N)c(-c2ccc(-c3cccc(C)c3F)cc2)nc2cnccc12)C(=O)O", "note": "[BAY-091]", "values": [
      {"measurement": "% of inhibition", "setting": "[4]", "result": 23.5, "unit": "%"}
    ]},
    {"smiles": "CNC(=O)Nc1ccc(-c2nc(N3CC4CCC(C3)O4)c3cnn(C4CCC5(CC4)OCCO5)c3n2)cc1", "values": [
      {"measurement": "% of control", "setting": "[5]", "result": 100, "unit": "%"}
    ]},
    {"smiles": "CCN(CC)CCCCNc1ncc2cc(-c3cc(OC)cc(OC)c3)c(NC(=O)NC(C)(C)C)nc2n1", "values": [
      {"measurement": "% of control", "setting": "[6]", "result": 100, "unit": "%"}
    ]},
    {"smiles": "CC[C@@H]1[C@H](F)C(=O)N[C@@H]1COc1nccc2cc(C(N)=O)c(OC)cc12", "note": "[ZIMLOVISERTIB]", "values": [
      {"measurement": "% of inhibition", "setting": "[7]", "result": 3.66, "unit": "%"}
    ]},
    {"smiles": "CN(C)C/C=C/C(=O)Nc1ccc(C(=O)N2CCCC(Nc3ncc(Cl)c(-c4c[nH]c5ccccc45)n3)C2)cc1", "note": "(stereo not drawn)", "values": [
      {"measurement": "% of control", "setting": "[8]", "result": 82, "unit": "%"}
    ]},
    {"smiles": "CCc1cccc(CC)c1NC(=O)c1nn(C)c2c1CCc1cnc(Nc3ccc(C(=O)NC4CCN(C)CC4)cc3OC(F)(F)F)nc1-2", "values": [
      {"measurement": "IC50", "setting": "[9]", "result": "> 10", "unit": "µM"}
    ]},
    {"smiles": "COc1cc(N(C)c2ccnc3ccc(C(F)(F)F)cc23)cc(OC)c1OC", "values": [
      {"measurement": "% binding", "setting": "[10]", "result": 100, "unit": "%"}
    ]},
    {"smiles": "Cc1cc([C@@H](C)Nc2ccccc2C(=O)O)c2nc(N3CCOCC3)cc(=O)n2c1", "note": "[AZD-6482]", "values": [
      {"measurement": "% of control", "setting": "[11]", "result": 73, "unit": "%"}
    ]},
    {"smiles": "O[C@H]1CC[C@H](Nc2ncc3nc(Nc4c(F)cc(F)cc4F)n([C@H]4CCOC4)c3n2)CC1", "values": [
      {"measurement": "% of control", "setting": "[12]", "result": 0, "unit": "%"}
    ]},
    {"smiles": "N#Cc1cccc(-c2c[nH]c3ncnc(N4CCOCC4)c23)c1", "values": [
      {"measurement": "% of inhibition", "setting": "[13]", "result": -53, "unit": "%"}
    ]}
  ]
}
